Experimental data taken from patent US20220313700A1, “METHODS FOR TREATING MAP3K8 POSITIVE CANCERS” (CELL RESPONSE, INC., priority 2019, published 2022).
Read-outs that look alike come from different tables or passages of the source.

How the values were obtained:
[1] = system: metastatic ROS1 positive non-small cell lung cancer (NSCLC) patients; settings: cited from earlier work
intact blood cells = settings: cited from earlier work
COT = COT (Homo sapiens, UniProt P41279); settings: cited from earlier work
[2] = system: four other related kinases; settings: cited from earlier work
HCT15 CRC cell line = assay: Alamar blue proliferation assay, HCT15; type: cell-based; settings: HCT15, 72 hours; for inhibition of proliferation: vs no drug, FIG. 8, FIG. 9; for inhibitory effect on proliferation (in words): FIG. 7, FIG. 9, FIG. 19, FIG. 20
Method: (§1) The experiments have been performed in the following way. Three thousand cells in suspension in the medium normally used to grow these particular cells have been placed in an individual well within a 96 well tissue culture plate. […] Subsequently, the cells were incubated for 72 hours in a standard tissue culture incubator at 37 degrees Celsius in an atmosphere containing 5% CO2. Following 66 hours, Alamar blue was added to the cells. Six hours later (72 hours from the addition of drug) the 96 well plate was placed in a fluorescence plate reader to measure for Alamar blue fluorescence (excitation wavelength of 540-570 nm (peak excitation is 560 nm)). Fluorescence emission was read at 580-610 nm (peak emission is 590 nm). This enabled the determination of the number of live cells present in each well. Wells containing each drug were compared to control wells where no drug was added. In each experiment, each condition was performed in multiple technical repeats of between four and eight times, by using between four and eight wells that were treated identically Each and every experiment was repeated at least three times on different days.

[3] = system: HPAFII pancreatic cancer cell line; assay: Alamar blue proliferation assay, HPAFII; type: cell-based; settings: 72 hours, vs no drug
Method: (§2) The experiments have been performed in the following way. Three thousand cells in suspension in the medium normally used to grow these particular cells have been placed in an individual well within a 96 well tissue culture plate. Following cell attachment, the drugs have added to the wells to achieve the final indicated concentration. Subsequently, the cells were incubated for 72 hours in a standard tissue culture incubator at 37 degrees Celsius in an atmosphere containing 5% CO2. Following 66 hours, Alamar blue was added to the cells. Six hours later (72 hours from the addition of drug) the 96 well plate was placed in a fluorescence plate reader to measure for Alamar blue fluorescence (excitation wavelength of 540-570 nm (peak excitation is 560 nm)). Fluorescence emission was read at 580-610 nm (peak emission is 590 nm). This enabled the determination of the number of live cells present in each well. Wells containing each drug were compared to control wells where no drug was added. In each experiment, each condition was performed in multiple technical repeats of between four and eight times, by using between four and eight wells that were treated identically Each and every experiment was repeated at least three times on different days. In the data shown here, a representative example of each experiment is shown.

DLD1 CRC cell line = assay: Alamar blue proliferation assay, DLD1; type: cell-based; settings: DLD1, 72 hours; for inhibitory effect on proliferation (in words): FIG. 7, FIG. 9, FIG. 20
Method: as §1

[4] = system: BxPC3 pancreatic cancer cell line; assay: Alamar blue proliferation assay, BxPC3; type: cell-based; settings: BxPC3, 72 hours, vs no drug
Method: as §2

A549 NSCLC cell line = assay: Alamar blue proliferation assay, A549; type: cell-based; settings: A549, 72 hours
Method: as §2

H23 NSCLC cell line = assay: Alamar blue proliferation assay, H23; type: cell-based; settings: H23, 72 hours, vs no drug
Method: as §2

[5] = system: LOVO colorectal cell line; assay: Alamar blue proliferation assay, LOVO; type: cell-based; settings: 72 hours, FIG. 7, FIG. 10
Method: as §1

H358 NSCLC cell line = assay: Alamar blue proliferation assay, H358; type: cell-based; settings: H358, 72 hours, vs no drug
Method: as §2

11-18 NSCLC cell line = assay: Alamar blue proliferation assay, 11-18; type: cell-based; settings: 11-18, 72 hours, FIG. 14, FIG. 17
Method: as §2

H1975 NSCLC cell line = assay: Alamar blue proliferation assay, H1975; type: cell-based; settings: H1975, 72 hours, vs no drug, FIG. 14, 16, 17
Method: as §2

STE1 NSCLC cell line = assay: Alamar blue proliferation assay, STE1; type: cell-based; settings: STE1, 72 hours, FIG. 18
Method: as §2

[6] = system: IKKβ, JNK1α, p38, EGFR, CK1α, CDK2, JAK3, MST4, GSK3β; settings: cited from earlier work
CRC cell line HT29 = assay: Alamar blue proliferation assay, HT29; type: cell-based; settings: HT29, 72 hours, monotherapy, FIG. 13
Method: as §2

ERK phosphorylation = settings: cited from earlier work
[7] = system: NSCLC patients with EGFR mutations; settings: cited from earlier work
NSCLC H1975 cell line = assay: siRNA knockdown proliferation assay, H1975; type: cell-based; settings: H1975, 200 nM, FIG. 21B
Method: as §1

Sequence of COT (P41279 whole entry): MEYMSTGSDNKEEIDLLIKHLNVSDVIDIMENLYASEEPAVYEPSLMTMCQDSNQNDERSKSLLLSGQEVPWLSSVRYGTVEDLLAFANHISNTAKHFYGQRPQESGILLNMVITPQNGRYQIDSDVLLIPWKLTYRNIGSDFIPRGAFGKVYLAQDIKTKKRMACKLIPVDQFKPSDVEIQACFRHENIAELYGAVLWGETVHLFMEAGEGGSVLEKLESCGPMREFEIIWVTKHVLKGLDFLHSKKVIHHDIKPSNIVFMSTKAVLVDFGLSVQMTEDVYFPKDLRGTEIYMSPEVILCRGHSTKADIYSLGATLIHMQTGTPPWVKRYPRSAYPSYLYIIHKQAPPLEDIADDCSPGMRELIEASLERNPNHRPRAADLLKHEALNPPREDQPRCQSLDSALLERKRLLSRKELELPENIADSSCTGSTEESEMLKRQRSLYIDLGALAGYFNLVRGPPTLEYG

SMILES: CCc1cc2c(cc1N1CCC(N3CCOCC3)CC1)C(C)(C)c1[nH]c3cc(C#N)ccc3c1C2=O [alectinib]
- clinical benefit in ROS1 positive patients ([1]; in vivo): do not possess clinical benefit

SMILES: NC(=O)c1cc2c(-c3cccc(-c4ccccc4)c3)cnc(N)c2s1 [FIG. 3B]
- activity when added to intact blood cells (intact blood cells): active
- IC50 (COT; thieno[2,3-c]pyridines, George et al. 2008, Cusack et al. 2009, read-out: COT IC50): 170 nM
- inhibition of four other related kinases relative to COT [2]: at least ten-fold less effective

SMILES: CC(C)Nc1cc(-c2c[nH]c(C(=O)N[C@H](CO)c3cccc(Cl)c3)c2)c(Cl)cn1 [Ulixertinib]
- inhibition of proliferation (HCT15 CRC cell line): 20%
- inhibition of proliferation [3]: 15%
- inhibition of proliferation (DLD1 CRC cell line; vs no drug, FIG. 8, FIG. 9): approximately 20%
- inhibition of proliferation [4]: 32%
- inhibition of proliferation (A549 NSCLC cell line; vs no drug, FIG. 6): 10%

SMILES: COc1cc2c(Oc3ccc(NC(=O)C4(C(=O)Nc5ccc(F)cc5)CC4)cc3F)ccnc2cc1OCCCN1CCOCC1 [foretinib]
- clinical benefit in ROS1 positive patients ([1]; in vivo): do not possess clinical benefit

SMILES: C[C@@H](Oc1cc(-c2cnn(C3CCNCC3)c2)cnc1N)c1c(Cl)ccc(F)c1Cl [crizotinib]
- patients in whom treatment was initially effective ([1]; clinical trials): 70-80%

SMILES: CCN1CCC(n2cc(CNc3cc(Cl)c4ncc(C#N)c(Nc5ccc(F)c(Cl)c5)c4c3)nn2)CC1 [COT inhibitor, 3-Quinolinecarbonitrile, 8-chloro-4-[(3-chloro-4-fluorophenyl)amino]-6-[[[1-(1-ethyl-4-piperidinyl)-1H-1,2,3-triazol-4-yl]methyl]amino]-3-quinolinecarbonitrile]
- inhibitory effect on proliferation (in words) (HCT15 CRC cell line): variable, but significant, inhibitory effect
- inhibition of proliferation (HCT15 CRC cell line): 30%
- inhibition of proliferation (H23 NSCLC cell line): about 30%
- inhibitory effect on proliferation (in words) [5]: variable, but significant, inhibitory effect
- inhibitory effect on proliferation (in words) (DLD1 CRC cell line): variable, but significant, inhibitory effect
- inhibition of proliferation (H358 NSCLC cell line): about 30%
- inhibitory effect on proliferation (in words) (11-18 NSCLC cell line): higher level of inhibition
- inhibition of proliferation (H1975 NSCLC cell line): 20%
- inhibitory effect on proliferation (in words) (A549 NSCLC cell line; FIG. 5, FIG. 6): no effect

SMILES: CN(C)C/C=C/C(=O)Nc1cc2c(Nc3ccc(F)c(Cl)c3)ncnc2cc1O[C@H]1CCOC1 [afatinib]
- inhibition of proliferation (H1975 NSCLC cell line): 35%

SMILES: C[C@H]1Oc2cc(cnc2N)-c2c(nn(C)c2C#N)CN(C)C(=O)c2ccc(F)cc21 [loraltinib]
- inhibition of proliferation (STE1 NSCLC cell line): 81%

SMILES: C=CC(=O)N1CCN(c2nc(=O)n(-c3c(C)ccnc3C(C)C)c3nc(-c4c(O)cccc4F)c(F)cc23)[C@@H](C)C1 [AMG510, 6-fluoro-7-(2-fluoro-6-hydroxyphenyl)-1-[4-methyl-2-(propan-2-yl)pyridin-3-yl]-4-[(2S)-2-methyl-4-(prop-2-enoyl)piperazin-1-yl]-1H,2H-pyrido[2,3-d]pyrimidin-2-one]
- inhibition of proliferation (H23 NSCLC cell line): 50%
- inhibition of proliferation (H358 NSCLC cell line): 30%

SMILES: CN1CCN(c2ccc(C(=O)Nc3n[nH]c4ccc(Cc5cc(F)cc(F)c5)cc34)c(NC3CCOCC3)c2)CC1 [entrectinib]
- duration of response ([1]; in vivo): 28.6 months
- objective response rate (ORR) ([1]; in vivo): 78%

SMILES: c1ccc2[nH]c(-c3n[nH]c4ccccc34)nc2c1 [FIG. 2A without methyl group]
- IC50 (COT; Hu et al. 2011, indazoles with benzimidazole ring, read-out: COT (TPL2) IC50): 109 nM
- kinase selectivity against CDK2, JAK3, MST4, GSK3β [6]: less selectivity
- kinase selectivity against IKKβ, JNK1α, p38, EGFR, CK1α [6]: good kinase selectivity

SMILES: COc1cc2c(Nc3ccc(Br)cc3F)ncnc2cc1OCC1CCN(C)CC1 [vandetanib]
- inhibition of proliferation (H1975 NSCLC cell line): 20%

SMILES: CN(C)C1CCN(C(=O)c2ccc(NC(=O)Nc3ccc(-c4nc(N5CCOCC5)nc(N5CCOCC5)n4)cc3)cc2)CC1 [Gedatolisib]
- inhibitory effect on proliferation (in words) (CRC cell line HT29): significant inhibitory effect
- inhibitory effect on proliferation (in words) (HCT15 CRC cell line): little to no inhibition
- inhibitory effect on proliferation (in words) (DLD1 CRC cell line): little to no inhibition

SMILES: Cc1c(CNCCO)cncc1-c1ccc2[nH]nc(-c3nc4ccccc4[nH]3)c2c1 [FIG. 2B]
- inhibition of ERK phosphorylation (ERK phosphorylation): inhibits ERK phosphorylation

SMILES: C=CC(=O)Nc1cc(Nc2nccc(-c3cn(C)c4ccccc34)n2)c(OC)cc1N(C)CCN(C)C [Osimertinib]
- progression-free survival, average ([7]; osimertinib, or erlotinib/gefitinib/afatinib followed by osimertinib): 18 months
- patients who respond ([7]; patients relapsed after first or second line EGFR inhibitors): Fifty percent
- reduction of relative cell number (NSCLC H1975 cell line): ~50%
